# Measured values as given in PubChem BioAssay (NCI).
#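 Cultured in 96-well plates, cells were exposed to test compound for 48 hours across five concentrations. Abbreviation: GI50, concentration required for 50% inhibition of growth. TGI denotes the concentration required for complete inhibition of growth.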
# Key:
# Test in all cases: growth of human tumour cells (NCI), 48 h
# MOLT-4 leukemia = system: MOLT-4 leukemia
# DU-145 prostate = system: DU-145 prostate
# HT29 colon = system: HT29 colon
# SNB-19 CNS = system: SNB-19 CNS
# HCT-116 colon = system: HCT-116 colon
# OVCAR-8 ovarian = system: OVCAR-8 ovarian
# IGROV1 ovarian = system: IGROV1 ovarian
# PC-3 prostate = system: PC-3 prostate
# SN12C renal = system: SN12C renal
# SK-OV-3 ovarian = system: SK-OV-3 ovarian
# MDA-MB-435 = system: MDA-MB-435
# RPMI-8226 leukemia = system: RPMI-8226 leukemia
# BT-549 breast = system: BT-549 breast
# UACC-62 melanoma = system: UACC-62 melanoma
# SF-268 CNS = system: SF-268 CNS
# OVCAR-5 ovarian = system: OVCAR-5 ovarian
# KM12 colon = system: KM12 colon
# A498 renal = system: A498 renal
# SK-MEL-2 melanoma = system: SK-MEL-2 melanoma
# SF-295 CNS = system: SF-295 CNS
# TK-10 renal = system: TK-10 renal
# HS 578T breast = system: HS 578T breast
# NCI-H460 lung = system: NCI-H460 lung
# NCI-H23 lung = system: NCI-H23 lung
# OVCAR-4 ovarian = system: OVCAR-4 ovarian
# NCI/ADR-RES ovarian = system: NCI/ADR-RES ovarian
# HCT-15 colon = system: HCT-15 colon
# UO-31 renal = system: UO-31 renal
# SW-620 colon = system: SW-620 colon
# RXF 393 renal = system: RXF 393 renal
# NCI-H226 lung = system: NCI-H226 lung
# COLO 205 colon = system: COLO 205 colon
# ACHN renal = system: ACHN renal
# HOP-92 NSCLC = system: HOP-92 NSCLC
# SR leukemia = system: SR leukemia
# M14 melanoma = system: M14 melanoma
# 786-0 renal = system: 786-0 renal
# LOX IMVI melanoma = system: LOX IMVI melanoma
# MCF7 breast = system: MCF7 breast
# SK-MEL-28 melanoma = system: SK-MEL-28 melanoma
# HOP-62 NSCLC = system: HOP-62 NSCLC
# A549 NSCLC = system: A549 NSCLC
# K-562 leukemia = system: K-562 leukemia
# EKVX NSCLC = system: EKVX NSCLC
# T-47D breast = system: T-47D breast
# MDA-N = system: MDA-N
# HL-60(TB) leukemia = system: HL-60(TB) leukemia
# CCRF-CEM leukemia = system: CCRF-CEM leukemia
# SK-MEL-5 melanoma = system: SK-MEL-5 melanoma
# HCC-2998 colon = system: HCC-2998 colon
# UACC-257 melanoma = system: UACC-257 melanoma
# U251 CNS = system: U251 CNS
# OVCAR-3 ovarian = system: OVCAR-3 ovarian
# NCI-H522 lung = system: NCI-H522 lung
# CAKI-1 renal = system: CAKI-1 renal
# SF-539 CNS = system: SF-539 CNS
# MDA-MB-231 breast = system: MDA-MB-231 breast
# SNB-75 CNS = system: SNB-75 CNS
# MALME-3M melanoma = system: MALME-3M melanoma
smiles,measurement,setting,value
C1=C\SS/C=C\SS/1,TGI,MOLT-4 leukemia,78.7 µM
same,TGI,DU-145 prostate,> 100 µM
same,TGI,HT29 colon,35.6 µM
same,TGI,SNB-19 CNS,> 100 µM
same,TGI,HCT-116 colon,> 100 µM
same,TGI,OVCAR-8 ovarian,49.8 µM
same,TGI,IGROV1 ovarian,62.5 µM
same,TGI,PC-3 prostate,> 100 µM
same,TGI,SN12C renal,> 100 µM
same,TGI,SK-OV-3 ovarian,> 100 µM
same,TGI,MDA-MB-435,> 100 µM
same,TGI,RPMI-8226 leukemia,71.8 µM
same,TGI,BT-549 breast,> 100 µM
same,TGI,UACC-62 melanoma,> 100 µM
same,TGI,SF-268 CNS,> 100 µM
same,TGI,OVCAR-5 ovarian,> 100 µM
same,TGI,KM12 colon,> 100 µM
same,TGI,A498 renal,> 100 µM
same,TGI,SK-MEL-2 melanoma,> 100 µM
same,TGI,SF-295 CNS,> 100 µM
same,TGI,TK-10 renal,> 100 µM
same,TGI,HS 578T breast,> 100 µM
same,TGI,NCI-H460 lung,80 µM
same,TGI,NCI-H23 lung,> 100 µM
same,TGI,OVCAR-4 ovarian,> 100 µM
same,TGI,NCI/ADR-RES ovarian,> 100 µM
same,TGI,HCT-15 colon,34 µM
same,TGI,UO-31 renal,> 100 µM
same,TGI,SW-620 colon,> 100 µM
same,TGI,RXF 393 renal,88.1 µM
same,TGI,NCI-H226 lung,> 100 µM
same,TGI,COLO 205 colon,> 100 µM
same,TGI,ACHN renal,> 100 µM
same,TGI,HOP-92 NSCLC,97.3 µM
same,TGI,SR leukemia,> 100 µM
same,TGI,M14 melanoma,> 100 µM
same,TGI,786-0 renal,35.8 µM
same,TGI,LOX IMVI melanoma,> 100 µM
same,TGI,MCF7 breast,36.2 µM
same,TGI,SK-MEL-28 melanoma,> 100 µM
same,TGI,HOP-62 NSCLC,> 100 µM
same,TGI,A549 NSCLC,> 100 µM
same,TGI,K-562 leukemia,85.2 µM
same,TGI,EKVX NSCLC,> 100 µM
same,TGI,T-47D breast,> 100 µM
same,TGI,MDA-N,> 100 µM
same,TGI,HL-60(TB) leukemia,35.4 µM
same,TGI,CCRF-CEM leukemia,7.09 µM
same,TGI,SK-MEL-5 melanoma,> 100 µM
same,TGI,HCC-2998 colon,> 100 µM
same,TGI,UACC-257 melanoma,> 100 µM
same,TGI,U251 CNS,> 100 µM
COc1ccc(C2c3cc4c(cc3OC(N3CCOCC3)C2C)OCO4)c(OC)c1OC (stereo unspecified),TGI,MOLT-4 leukemia,34 µM
same,TGI,OVCAR-3 ovarian,45.6 µM
same,TGI,HT29 colon,52.2 µM
same,TGI,SNB-19 CNS,39.1 µM
same,TGI,HCT-116 colon,22.3 µM
same,TGI,OVCAR-8 ovarian,> 100 µM
same,TGI,NCI-H522 lung,29.7 µM
same,TGI,IGROV1 ovarian,70.7 µM
same,TGI,PC-3 prostate,88.7 µM
same,TGI,SN12C renal,> 100 µM
same,TGI,MDA-MB-435,7.01 µM
same,TGI,RPMI-8226 leukemia,39.8 µM
same,TGI,UACC-62 melanoma,69.7 µM
same,TGI,SF-268 CNS,79.8 µM
same,TGI,OVCAR-5 ovarian,74.3 µM
same,TGI,KM12 colon,30.8 µM
same,TGI,SK-MEL-2 melanoma,36.2 µM
same,TGI,SF-295 CNS,43 µM
same,TGI,TK-10 renal,70.5 µM
same,TGI,HS 578T breast,19.2 µM
same,TGI,NCI-H460 lung,51.3 µM
same,TGI,NCI-H23 lung,> 100 µM
same,TGI,NCI/ADR-RES ovarian,> 100 µM
same,TGI,HCT-15 colon,> 100 µM
same,TGI,UO-31 renal,35.1 µM
same,TGI,SW-620 colon,> 100 µM
same,TGI,COLO 205 colon,33.6 µM
same,TGI,ACHN renal,64.9 µM
same,TGI,SR leukemia,35.6 µM
same,TGI,M14 melanoma,33.5 µM
same,TGI,786-0 renal,43.2 µM
same,TGI,CAKI-1 renal,9.74 µM
same,TGI,LOX IMVI melanoma,33.9 µM
same,TGI,MCF7 breast,80.2 µM
same,TGI,SK-MEL-28 melanoma,82 µM
same,TGI,HOP-62 NSCLC,> 100 µM
same,TGI,A549 NSCLC,> 100 µM
same,TGI,SF-539 CNS,27.7 µM
same,TGI,K-562 leukemia,21 µM
same,TGI,EKVX NSCLC,> 100 µM
same,TGI,T-47D breast,> 100 µM
same,TGI,MDA-N,8.42 µM
same,TGI,CCRF-CEM leukemia,55.4 µM
same,TGI,SK-MEL-5 melanoma,23.1 µM
same,TGI,HCC-2998 colon,25 µM
same,TGI,UACC-257 melanoma,82.2 µM
C[C@H]1CCCC(O)C(O)[C@@H]2C[C@H](O[Si](C)(C)C(C)(C)C)C[C@H]2[C@H](O[Si](C)(C)C(C)(C)C)C(O)C(O)C(=O)O1 (stereo partly specified),GI50,MOLT-4 leukemia,66 µM
same,TGI,MOLT-4 leukemia,> 100 µM
same,GI50,OVCAR-3 ovarian,25 µM
same,TGI,OVCAR-3 ovarian,79.7 µM
same,GI50,MDA-MB-231 breast,14.2 µM
same,TGI,MDA-MB-231 breast,38.5 µM
same,GI50,DU-145 prostate,28.3 µM
same,TGI,DU-145 prostate,> 100 µM
same,GI50,HT29 colon,62.7 µM
same,TGI,HT29 colon,> 100 µM
same,GI50,SNB-19 CNS,15.9 µM
same,TGI,SNB-19 CNS,46.7 µM
same,GI50,HCT-116 colon,28.3 µM
same,TGI,HCT-116 colon,> 100 µM
same,GI50,OVCAR-8 ovarian,13.5 µM
same,TGI,OVCAR-8 ovarian,37.3 µM
same,GI50,IGROV1 ovarian,16.2 µM
same,TGI,IGROV1 ovarian,43 µM
same,GI50,SNB-75 CNS,4.3 µM
same,TGI,SNB-75 CNS,18.1 µM
same,GI50,PC-3 prostate,46.1 µM
same,TGI,PC-3 prostate,> 100 µM
same,GI50,SN12C renal,34.6 µM
same,TGI,SN12C renal,> 100 µM
same,GI50,SK-OV-3 ovarian,54.6 µM
same,TGI,SK-OV-3 ovarian,> 100 µM
same,GI50,MDA-MB-435,> 100 µM
same,TGI,MDA-MB-435,> 100 µM
same,GI50,RPMI-8226 leukemia,> 100 µM
same,TGI,RPMI-8226 leukemia,> 100 µM
same,GI50,BT-549 breast,20.1 µM
same,TGI,BT-549 breast,> 100 µM
same,GI50,UACC-62 melanoma,18.5 µM
same,TGI,UACC-62 melanoma,48.8 µM
same,GI50,SF-268 CNS,20 µM
same,TGI,SF-268 CNS,> 100 µM
same,GI50,OVCAR-5 ovarian,31.8 µM
same,TGI,OVCAR-5 ovarian,> 100 µM
same,GI50,KM12 colon,37.5 µM
same,TGI,KM12 colon,> 100 µM
same,GI50,A498 renal,40.4 µM
same,TGI,A498 renal,> 100 µM
same,GI50,SK-MEL-2 melanoma,34.8 µM
same,TGI,SK-MEL-2 melanoma,> 100 µM
same,GI50,SF-295 CNS,32 µM
same,TGI,SF-295 CNS,> 100 µM
same,GI50,TK-10 renal,17.2 µM
same,TGI,TK-10 renal,43.2 µM
same,GI50,NCI-H460 lung,11 µM
same,TGI,NCI-H460 lung,23.9 µM
same,GI50,MALME-3M melanoma,11.7 µM
same,TGI,MALME-3M melanoma,35.2 µM
same,GI50,NCI/ADR-RES ovarian,27.2 µM
same,TGI,NCI/ADR-RES ovarian,> 100 µM
same,GI50,UO-31 renal,42.2 µM
same,TGI,UO-31 renal,> 100 µM
same,GI50,SW-620 colon,94.7 µM
same,TGI,SW-620 colon,> 100 µM
same,GI50,RXF 393 renal,31.8 µM
same,TGI,RXF 393 renal,> 100 µM
same,GI50,COLO 205 colon,> 100 µM
same,TGI,COLO 205 colon,> 100 µM
same,GI50,ACHN renal,14.4 µM
same,TGI,ACHN renal,44.7 µM
same,GI50,M14 melanoma,39.1 µM
same,TGI,M14 melanoma,> 100 µM
same,GI50,786-0 renal,10.6 µM
same,TGI,786-0 renal,22.3 µM
same,GI50,CAKI-1 renal,23.5 µM
same,TGI,CAKI-1 renal,89.7 µM
same,GI50,MCF7 breast,50.2 µM
same,TGI,MCF7 breast,> 100 µM
same,GI50,SK-MEL-28 melanoma,47.9 µM
same,TGI,SK-MEL-28 melanoma,> 100 µM
same,GI50,HOP-62 NSCLC,11 µM
same,TGI,HOP-62 NSCLC,27.6 µM
same,GI50,A549 NSCLC,31.5 µM
same,TGI,A549 NSCLC,> 100 µM
same,GI50,SF-539 CNS,14.4 µM
same,TGI,SF-539 CNS,30.7 µM
same,GI50,K-562 leukemia,69.4 µM
same,TGI,K-562 leukemia,> 100 µM
same,GI50,EKVX NSCLC,26.1 µM
same,TGI,EKVX NSCLC,72.3 µM
same,GI50,T-47D breast,28.4 µM
same,TGI,T-47D breast,> 100 µM
same,GI50,MDA-N,> 100 µM
same,TGI,MDA-N,> 100 µM
same,GI50,CCRF-CEM leukemia,28 µM
same,TGI,CCRF-CEM leukemia,> 100 µM
same,GI50,SK-MEL-5 melanoma,45.4 µM
same,TGI,SK-MEL-5 melanoma,> 100 µM
same,GI50,HCC-2998 colon,17.5 µM
same,TGI,HCC-2998 colon,50.3 µM
same,GI50,UACC-257 melanoma,35.2 µM
same,TGI,UACC-257 melanoma,> 100 µM
same,GI50,U251 CNS,12.7 µM
same,TGI,U251 CNS,30.9 µM
